Results from patent EP0533240A2, “Substituted amine derivatives of piperazinylcamphorsulfonyl oxytocin antagonists” (MERCK & CO. INC., priority 1991, dated 1993).

Target: T1, uterine OT receptors (Rattus norvegicus, UniProt P70536)
T1 construct: from tissue; host or cells: uterus of DES-treated rats, crude membrane preparation
T1 sequence (P70536 1-388): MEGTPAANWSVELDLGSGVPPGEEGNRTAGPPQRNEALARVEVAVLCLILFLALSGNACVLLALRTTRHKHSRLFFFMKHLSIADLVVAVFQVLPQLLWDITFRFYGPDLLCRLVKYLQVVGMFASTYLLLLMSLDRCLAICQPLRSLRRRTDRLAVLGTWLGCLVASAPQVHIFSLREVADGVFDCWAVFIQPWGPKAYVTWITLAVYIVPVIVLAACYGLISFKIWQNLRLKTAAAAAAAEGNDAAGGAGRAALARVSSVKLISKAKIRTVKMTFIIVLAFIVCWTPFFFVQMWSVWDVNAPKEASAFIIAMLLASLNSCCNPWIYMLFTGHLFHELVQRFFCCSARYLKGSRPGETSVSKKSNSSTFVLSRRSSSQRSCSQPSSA
Assay: [3H]Oxytocin radioligand binding assay, crude uterine membrane preparation
Set-up: species or system rats
Conditions: for IC50: competition with 1 nM [3H]OT, 60 minutes, 22 °C, membranes of uteri from DES-treated rats; for inhibition at 1 µM: at 1,000 nM compound

[1] = 1 nM [3H]OT, rat uterine membranes

Protocol: Oxytocin (OT)([tyrosyl, 3,5-[^3H]OT; 30-60 Ci/mmol; New England Nuclear. Boston, MA) to uterine OT receptors was based on an assay*using a crude membrane preparation of uteri taken from diethylstilbestrol dipropionate (DES)-treated (0.3 mg/kg, ip; 18-24) rats. Competetion studies were conducted at equilibrium (60 minutes; 22 °C) using 1 nM[^3H]OT in the following assay buffer: 50 mM Tris-HCI, 5 mM MgCl2, and 0.1% BSA, pH 7.4. Nonspecific binding (10% of the total binding) was determined using 1µM unlabeled OT and the binding reaction was terminated by filtration through glass fiber filters using a cell harvester (model 7019, Skatron, Inc., Sterling, VA).

Row | SMILES | IC50 [nM] | further results
1 | Cc1ccccc1N1CCN(S(=O)(=O)CC23CCC(CC2NC(=O)C(C)c2c[nH]cn2)C3(C)C)CC1 (stereo not drawn) [Example 44, 1-((7,7-DIMETHYL-2-ENDO-(2-(4-IMIDAZOLYL)PROPANOYL)AMINO-BICYCLO(2.2.1 )HEPTAN-1-YL)-METHANESULFONYL)-4-(2-METHYLPHENYL)-3-PIPERAZINE] | 180 | –
2 | Cc1ccccc1N1CCN(S(=O)(=O)CC23CCC(CC2(O)C(C)CNC(=O)C2CCCNC2)C3(C)C)CC1 (stereo not drawn) [Example 47, 1-((7,7-DIMETHYL-2-EXO-HYDROXY-2-ENDO-2-(1-(3-PIPERIDINYLCARBONYL)AMINO)PROPYL-BICYCLO-(2.2.1)HEPTAN-1-YL) METHANESULFONYL)-4-(2-METHYLPHENYL)PIPERAZINE] | 15 | –
3 | Cc1ccccc1N1CCN(S(=O)(=O)CC23CCC(CC2(O)C(C)C#N)C3(C)C)CC1 (single isomer, unassigned) [Example 2, 1-((7,7-DIMETHYL-2-EXO-HYDROXY-2-ENDO-(1-CYANO)ETHYL-BICYCLO(2.2.1)HEPTAN-1-YL)-METHANESULFONYL)-4-(2-METHYL PHENYL)PIPERAZINE] | 150 | –
4 | COC(=O)CCN1CCCC1C(=O)NCC(C)C1(O)CC2CCC1(CS(=O)(=O)N1CCN(c3ccccc3C)CC1)C2(C)C (centres unmarked) [Example 45] | 12 | –
5 | Cc1ccccc1N1CCN(S(=O)(=O)CC23CCC(C=C2C(=O)O)C3(C)C)CC1 (centres unmarked) [Example 21, 1-((7,7-DIMETHYL-2-CARBOXY-BICYCLO(2.2.1) HEPT-2-EN-1 -YL)METHANESULFONYL)-4-(2-METHYLPHENYL)PIPERAZINE] | – | inhibition at 1 µM [1]: 38%
6 | Cc1ccccc1N1CCN(S(=O)(=O)CC23CCC(CC2(O)C(C)CNC(=O)C2CCNCC2)C3(C)C)CC1 (centres unmarked) [Example 54] | 14 | –
7 | COC(=O)CCN1CCCC(C(=O)NCC(C)C2(O)CC3CCC2(CS(=O)(=O)N2CCN(c4ccccc4C)CC2)C3(C)C)C1 (centres unmarked) [Example 48] | 30 | –
8 | Cc1ccccc1N1CCN(S(=O)(=O)CC23CCC(CC2=CCNCC(C)C)C3(C)C)CC1 (centres unmarked) [Example 14, 1-((7,7-dimethyl-2-(2-isobutylamino)ethylidine-bicyclo (2.2.1)heptan-1-yl)methanesulfonyl)-4-(2-methylphenyl) piperazine] | 1100 | –
9 | Cc1ccccc1N1CCN(S(=O)(=O)CC23CCC(CC2(O)C(C)CNC(=O)C2CCN(CC(=O)O)CC2)C3(C)C)CC1 (stereo not drawn) [Example 58, 1-((7,7-DIMETHYL-2-EXO-HYDROXY-2-ENDO-2-(1-(4-(1-CARBOXYMETHYL)PIPERIDINYLCARBONYL)-AMINO)PROPYL-BICYCLO (2.2.1)HEPTAN-1-YL)METHANESULFONYL)-4-(2-METHYLPHENYL) PIPERAZINE] | 56 | –
10 | CCOC(=O)CCCN1CCCC1C(=O)NCC(C)C1(O)CC2CCC1(CS(=O)(=O)N1CCN(c3ccccc3C)CC1)C2(C)C [Example 5, 1-((7,7-DIMETHYL-2-EXO-HYDROXY-2-ENDO-2-(1-(L-N-(ETHOXYCARBONYLPROPYL)PROLYL)AMINO)-PROPYL-BICYCLO-(2.2.1)HEPTAN-1-YL)METHANESULFONYL)-4-(2-METHYLPHENYL) PIPERAZINE] | 100 | –
11 | Cc1ccccc1N1CCN(S(=O)(=O)CC23CCC(CC2(O)C(C)CN)C3(C)C)CC1 (single isomer, unassigned) [Example 3, 1-((7,7-DIMETHYL-2-EXO-HYDROXY-2-ENDO-2-(1-AMINO)PROPYL-BICYCLO(2.2.1 )HEPTAN-1-YL)-METHANESULFONYL)-4-(2-METHYLPHENYL)PIPERAZINE] | 180 | –
12 | COC(=O)C1CC(=O)N(CC(C)C2(O)CC3CCC2(CS(=O)(=O)N2CCN(c4ccccc4C)CC2)C3(C)C)C1 (centres unmarked) [Example 26] | 35 | –
13 | Cc1ccccc1N1CCN(S(=O)(=O)CC23CCC(CC2=O)C3(C)C)CC1=O (centres unmarked) [Example 30] | – | inhibition at 10 µM (at 10,000 nM compound, 1 nM [3H]OT, rat uterine membranes): 16%
14 | Cc1ccccc1N1CCN(S(=O)(=O)CC23CCC(CC2NC(=O)Cc2c[nH]cn2)C3(C)C)CC1 (centres unmarked) [Example 43] | 110 | –
15 | Cc1ccccc1N1CCN(S(=O)(=O)CC23CCC(CC2NC(=O)OCc2ccccc2)C3(C)C)CC1 (centres unmarked) [Example 39] | – | inhibition at 1 µM [1]: 54%
16 | Cc1ccccc1N1CCN(S(=O)(=O)CC23CCC(CC2(O)C(C)CNC(=O)C2CCCN2)C3(C)C)CC1 (centres unmarked) [Example 4] | 34 | –
17 | Cc1ccccc1N1CCN(S(=O)(=O)CC23CCC(CC2O)C3(C)C)C(C)C1 (centres unmarked) [Example 32] | – | inhibition at 1 µM [1]: 37%
18 | COC(=O)CCN1CCC(C(=O)NCC(C)C2(O)CC3CCC2(CS(=O)(=O)N2CCN(c4ccccc4C)CC2)C3(C)C)CC1 (centres unmarked) [Example 55] | 30 | –
19 | C=CC1(O)CC2CCC1(CS(=O)(=O)N1CCN(c3ccccc3C)CC1)C2(C)C (stereo not drawn) [Example 12, 1-((7,7-dimethyl-2-exo-hydroxy-2-endo-ethenyl-bicyclo(2.2.1)heptan-1-yl)methanesulfonyl)-4-(2-methylphenyl)piperazine] | – | inhibition at 0.1 µM (at 100 nM compound, 1 nM [3H]OT, rat uterine membranes): 23%
20 | Cc1ccccc1N1CCN(S(=O)(=O)CC23CCC(CC2=CCN)C3(C)C)CC1 (centres unmarked) [Example 16, 1-((7,7-dimethyl-2-(2-amino)ethylidine-bicyclo(2.2.1)heptan-1-yl)methanesulfonyl)-4-(2-methylphenyl)-piperazine] | – | inhibition at 1 µM [1]: 64%
21 | Cc1ccccc1N1CCN(S(=O)(=O)CC23CCC(CC2(O)C(C)CNC(=O)C2CCCN2CCCC(=O)O)C3(C)C)CC1 [Example 6, 1-((7,7-DIMETHYL-2-EXO-HYDROXY-2-ENDO-2-(1-(L-N-(3-CARBOXYPROPYL)PROLYL)AMINO)PROPYL-BICYCLO(2.2.1) HEPTAN-1 -YL)METHANESULFONYL)-4-(2-METHYLPHENYL) PIPERAZINE] | 10 | –
22 | Cc1ccccc1N1CCN(S(=O)(=O)CC23CCC(CC24CO4)C3(C)C)CC1 (centres unmarked) [Example 18] | – | inhibition at 1 µM [1]: 75%
23 | Cc1ccccc1N1CCN(S(=O)(=O)CC23CCC(CC2(O)C(C)CNC(=O)C2CCCN2CC(=O)O)C3(C)C)CC1 (centres unmarked) [Example 53] | 28 | –
24 | Cc1ccccc1N1CCN(S(=O)(=O)CC23CCC(CC2(O)C(C)CNC(=O)C2CCCN(CCC(=O)O)C2)C3(C)C)CC1 (stereo not drawn) [Example 49, 1-((7,7-DIMETHYL-2-EXO-HYDROXY-2-ENDO-2-(1-(3-(1-CARBOXYETHYL)PIPERIDINYLCARBONYL)-AMINO)PROPYL-BICYCLO-(2.2.1)HEPTAN-1-YL)METHANESULFONYL)-4-(2-METHYLPHENYL) PIPERAZINE] | 25 | –
25 | Cc1ccccc1N1CCN(S(=O)(=O)CC23CCC(CC2(O)C(C)CNC(=O)C2CCCN(CC(=O)O)C2)C3(C)C)CC1 (centres unmarked) [Example 51] | 38 | –
26 | Cc1ccccc1N1CCN(S(=O)(=O)CC23CCC(CC2(O)CNCC(C)C)C3(C)C)CC1 (stereo not drawn) [Example 19, 1-((7,7-DIMETHYL-2-EXO-HYDROXY-2-ENDO-ISOBUTYLAMINOMETHYL-BICYCLO(2.2.1 )HEPTAN-1-YL)-METHANESULFONYL)-4-(2-METHYLPHENYL)PIPERAZINE] | – | inhibition at 1 µM [1]: 31%
27 | Cc1ccccc1N1CCN(S(=O)(=O)CC23CCC(CC2(O)C(C)CNC(=O)C2CCCN2CCC(=O)O)C3(C)C)CC1 (centres unmarked) [Example 46] | 20 | –
28 | Cc1ccccc1N1CCN(S(=O)(=O)CC23CCC(C=C2C(=O)NCCc2c[nH]cn2)C3(C)C)CC1 (centres unmarked) [Example 22, 1-((7,7-DIMETHYL-2-(4-IMIDAZOLYL)ETHYLAMINOCARBONYL-BICYCLO(2.2.1 )HEPT-2-EN-1-YL)-METHANESULFONYL)-4-(2-METHYLPHENYL)PIPERAZINE] | – | inhibition at 1 µM [1]: 78%
29 | Cc1ccccc1N1CCN(S(=O)(=O)CC23CCC(CC2=CCN=[N+]=[N-])C3(C)C)CC1 (centres unmarked) [Example 15, 1-((7,7-dimethyl-2-(2-azido)ethylidine-bicyclo(2.2.1)heptan-1-yl)methanesulfonyl)-4-(2-methylphenyl)-piperazine] | – | inhibition at 1 µM [1]: 44%
